Key:
[1] = molecular target: T1, Bromodomain BRD4 Binding Domain 1 (BD1) [BRD4 (Y390A)] (Homo sapiens, UniProt O60885, Y390A); test: TR-FRET binding assay, Bromodomain BRD4 BD1 mutant assay; conditions: for IC50: TR-FRET, BRD4 (Y390A) 10 nM, Alexa Fluor647 ligand at Kd, read-out: pIC50 in the BRD4 BD1 assay (converted)
T1 construct: made in house; host or cells: E. coli (pET15b vector)
Method: Binding was assessed using a time resolved fluorescent resonance energy transfer binding assay. This utilises a 6 His purification tag at the N-terminal of the proteins as an epitope for an anti-6 His antibody labeled with Europium chelate (PerkinElmer AD0111) allowing binding of the Europium to the proteins which acts as the donor fluorophore. A small molecule, high affinity binder of the bromodomain BRD4 has been labeled with Alexa Fluor647 (Reference Compound X) and this acts as the acceptor in the FRET pair.
In the absence of a competing compound, excitation of the Europium causes the donor to emit at λ618 nm which excites the Alexa labelled bromodomain binding compound leading to an increased energy transfer that is measurable at λ647 nM. In the presence of a sufficient concentration of a compound that can bind these proteins, the interaction is disrupted leading to a quantifiable drop in fluorescent resonance energy transfer.
The binding of Examples 1 to 11 to Bromodomain BRD4 was assessed using mutated proteins to detect differential binding to Binding Domain 1 (BD1) on the bromodomain. These single residue mutations in the acetyl lysine binding pocket greatly lower the affinity of the fluoroligand (Reference Compound X) for the mutated domain (>1000 fold selective for the non-mutated domain). Therefore in the final assay conditions, binding of the fluoroligand to the mutated domain cannot be detected and subsequently the assay is suitable to determine the binding of compounds to the single non-mutated bromodomain.
Recombinant Human Bromodomain [BRD4 (Y390A)] was expressed in E colicells (pET15b vector) with a 6-His tag at the N-terminal. […]
All assay components were dissolved in buffer composition of 50 mM HEPES pH7.4, 50 mM NaCl, 5% Glycerol, 1 mM DTT and 1 mM CHAPS. […] Plates were then read on the Envision platereader, (λex=317 nm, donor λem=615 nm; acceptor λem=665 nm; Dichroic LANCE dual). Time resolved fluorescent intensity measurements were made at both emission wavelengths and the ratio of acceptor/donor was calculated and used for data analysis. […]

[2] = system: LPS induced MCP-1 production from human whole blood; test: LPS induced MCP-1 production from human whole blood; assay type: cell-based; conditions: LPS 200 ng/mL, 18-24 hours, read-out: pIC50, LPS induced MCP-1 production (converted)
Method: Activation of monocytic cells by agonists of toll-like receptors such as bacterial lipopolysaccharide (LPS) results in production of key inflammatory mediators including MCP-1. Such pathways are widely considered to be central to the pathophysiology of a range of auto-immune and inflammatory disorders. Blood is collected in a tube containing Sodium heparin (Leo Pharmaceuticals) (10 units of heparin/mL of blood). 96-well compound plates containing 1 μL test sample in 100% DMSO were prepared (two replicates on account of donor variability). 130 μL of whole blood was dispensed into each well of the 96-well compound plates and incubated for 30 min at 37° C., 5% CO2. 10 μL of lipopolysaccharide (from Salmonella typhosa; L6386) made up in PBS (200 ng/mL final assay concentration) was added to each well of the compound plates. The plates were then placed in the humidified primary cell incubator for 18-24 hours at 37° C., 5% CO2. 140 μL of PBS was added to all wells of the compound plates containing blood. The plates were then sealed and centrifuged for 10 mins at 2500 rpm. […] 150 μL of 2×MSD Read Buffer T (stock 4×MSD Read Buffer T was diluted 50:50 with de-ionised water) was then added to each well and the plates read on the MSD Sector Imager 6000. Concentration response curves for each compound were generated from the data and an IC50 value was calculated.

Row | IC50 [1] [nM] | IC50 [2] [nM] | Structure (SMILES) | selectivity of the fluoroligand for the non-mutated domain over the mutated domain ([1]; single residue mutations in the acetyl lysine binding pocket) [fold]
1 | 398 | 2510 | Cc1cc(-c2nc3ccccc3n2CC2CCOCC2)c[nH]c1=O [Example 10, 3-methyl-5-(1-((tetrahydro-2H-pyran-4-yl)methyl)-1H-benzo[d]imidazol-2-yl)pyridin-2(1H)-one] | –
2 | 794 | 79.4 | Cc1cc(-c2nc3cc(CN[C@@H](CC(C)C)C(=O)OC4CCCC4)ccc3n2CC2CCOCC2)c[nH]c1=O [Example 3, (S)-cyclopentyl 4-methyl-2-(((2-(5-methyl-6-oxo-1,6-dihydropyridin-3-yl)-1-((tetrahydro-2H-pyran-4-yl)methyl)-1H-benzo[d]imidazol-5-yl)methyl)amino)pentanoate] | –
3 | – | – | COc1ccc2c(c1)C(c1ccc(Cl)cc1)=N[C@@H](CC(=O)NCCCCCNC(=O)CCCCCC1(C)/C(=C/C=C/C=C/C3=[N+](CCCCS(=O)(=O)O)c4ccc(S(=O)(=O)O)cc4C3(C)C)N(CCCCS(=O)(=O)[O-])c3ccc(S(=O)(=O)O)cc31)c1nnc(C)n1-2 (some centres unmarked) [Reference Compound X, reference compound] | > 1000
